Publication PMC8213057, “Targeting ALK2: An Open Science Approach to Developing Therapeutics for the Treatment of Diffuse Intrinsic Pontine Glioma” (Journal of Medicinal Chemistry, 2020)

Legend:
MEKK2 = target: T1, MEKK2 (Homo sapiens, UniProt Q9Y2U5); experiment: biochemical; settings: read-out: % enzyme activity, 1 μM; Run 1, Run 2
T1 sequence (Q9Y2U5 1-619): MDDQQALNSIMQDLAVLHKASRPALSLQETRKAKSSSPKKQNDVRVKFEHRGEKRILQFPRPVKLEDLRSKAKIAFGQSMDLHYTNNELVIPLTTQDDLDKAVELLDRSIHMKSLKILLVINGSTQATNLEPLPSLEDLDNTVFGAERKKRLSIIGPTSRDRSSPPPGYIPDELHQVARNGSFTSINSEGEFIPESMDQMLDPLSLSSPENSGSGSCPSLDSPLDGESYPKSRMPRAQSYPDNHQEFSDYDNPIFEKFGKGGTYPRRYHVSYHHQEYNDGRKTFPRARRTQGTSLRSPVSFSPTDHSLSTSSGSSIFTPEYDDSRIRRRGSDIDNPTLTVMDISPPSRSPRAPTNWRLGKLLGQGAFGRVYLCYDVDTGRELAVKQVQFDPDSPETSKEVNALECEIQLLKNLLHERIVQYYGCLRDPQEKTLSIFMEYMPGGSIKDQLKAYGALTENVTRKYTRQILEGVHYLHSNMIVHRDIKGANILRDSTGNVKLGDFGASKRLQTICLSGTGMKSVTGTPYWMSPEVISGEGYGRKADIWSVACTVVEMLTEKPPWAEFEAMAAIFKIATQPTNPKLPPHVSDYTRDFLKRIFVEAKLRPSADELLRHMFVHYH

MRCKb/CDC42BPB = MRCKb/CDC42BPB (Homo sapiens, UniProt Q9Y5S2); experiment: biochemical; settings: read-out: % enzyme activity, 1 μM; Run 1, Run 2
ROCK2 = ROCK2 (Homo sapiens, UniProt O75116); settings: 1 μM; Run 1, Run 2
MYO3b = target: T2, MYO3b (Homo sapiens, UniProt Q8WXR4); experiment: biochemical; settings: read-out: % enzyme activity, 1 μM; Run 1, Run 2
T2 sequence (Q8WXR4 1-1341): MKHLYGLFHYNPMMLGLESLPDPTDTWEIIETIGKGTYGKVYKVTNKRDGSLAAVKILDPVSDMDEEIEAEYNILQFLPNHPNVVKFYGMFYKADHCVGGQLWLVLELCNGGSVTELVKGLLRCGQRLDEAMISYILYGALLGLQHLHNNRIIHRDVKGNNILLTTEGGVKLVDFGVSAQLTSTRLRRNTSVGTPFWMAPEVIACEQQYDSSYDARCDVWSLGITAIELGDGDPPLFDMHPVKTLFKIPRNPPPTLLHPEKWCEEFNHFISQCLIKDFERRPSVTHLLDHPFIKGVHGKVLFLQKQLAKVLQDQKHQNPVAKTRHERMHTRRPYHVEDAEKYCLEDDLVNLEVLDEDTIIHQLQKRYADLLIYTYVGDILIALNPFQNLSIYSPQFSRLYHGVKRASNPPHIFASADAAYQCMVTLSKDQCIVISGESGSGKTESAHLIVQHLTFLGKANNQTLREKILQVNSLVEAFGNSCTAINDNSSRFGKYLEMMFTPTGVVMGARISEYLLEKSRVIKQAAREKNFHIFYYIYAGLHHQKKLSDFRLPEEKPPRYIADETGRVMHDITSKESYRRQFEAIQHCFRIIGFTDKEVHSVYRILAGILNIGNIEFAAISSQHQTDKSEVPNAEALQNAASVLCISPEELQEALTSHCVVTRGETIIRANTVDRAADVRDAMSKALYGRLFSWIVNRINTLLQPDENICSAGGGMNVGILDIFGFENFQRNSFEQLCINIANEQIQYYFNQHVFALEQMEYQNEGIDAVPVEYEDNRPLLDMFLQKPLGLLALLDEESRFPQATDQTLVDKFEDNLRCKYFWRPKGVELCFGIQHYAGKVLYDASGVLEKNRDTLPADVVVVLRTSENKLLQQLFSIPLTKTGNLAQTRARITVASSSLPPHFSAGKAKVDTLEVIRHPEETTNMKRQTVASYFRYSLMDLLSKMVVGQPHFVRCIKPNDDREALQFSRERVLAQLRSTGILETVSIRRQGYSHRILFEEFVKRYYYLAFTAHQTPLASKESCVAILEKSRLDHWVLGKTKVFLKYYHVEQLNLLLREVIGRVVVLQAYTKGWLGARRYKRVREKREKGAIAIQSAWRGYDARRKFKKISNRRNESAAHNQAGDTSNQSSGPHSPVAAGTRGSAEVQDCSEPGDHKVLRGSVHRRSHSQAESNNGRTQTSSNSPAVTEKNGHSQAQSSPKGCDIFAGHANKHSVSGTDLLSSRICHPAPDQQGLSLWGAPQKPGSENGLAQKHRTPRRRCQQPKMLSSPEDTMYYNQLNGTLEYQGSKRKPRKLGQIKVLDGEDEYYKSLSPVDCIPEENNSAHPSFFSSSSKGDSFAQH

EPHB3 = target: T3, EPHB3 (Homo sapiens, UniProt P54753); experiment: biochemical; settings: read-out: % enzyme activity, 1 μM; Run 1, Run 2
T3 sequence (P54753 34-998): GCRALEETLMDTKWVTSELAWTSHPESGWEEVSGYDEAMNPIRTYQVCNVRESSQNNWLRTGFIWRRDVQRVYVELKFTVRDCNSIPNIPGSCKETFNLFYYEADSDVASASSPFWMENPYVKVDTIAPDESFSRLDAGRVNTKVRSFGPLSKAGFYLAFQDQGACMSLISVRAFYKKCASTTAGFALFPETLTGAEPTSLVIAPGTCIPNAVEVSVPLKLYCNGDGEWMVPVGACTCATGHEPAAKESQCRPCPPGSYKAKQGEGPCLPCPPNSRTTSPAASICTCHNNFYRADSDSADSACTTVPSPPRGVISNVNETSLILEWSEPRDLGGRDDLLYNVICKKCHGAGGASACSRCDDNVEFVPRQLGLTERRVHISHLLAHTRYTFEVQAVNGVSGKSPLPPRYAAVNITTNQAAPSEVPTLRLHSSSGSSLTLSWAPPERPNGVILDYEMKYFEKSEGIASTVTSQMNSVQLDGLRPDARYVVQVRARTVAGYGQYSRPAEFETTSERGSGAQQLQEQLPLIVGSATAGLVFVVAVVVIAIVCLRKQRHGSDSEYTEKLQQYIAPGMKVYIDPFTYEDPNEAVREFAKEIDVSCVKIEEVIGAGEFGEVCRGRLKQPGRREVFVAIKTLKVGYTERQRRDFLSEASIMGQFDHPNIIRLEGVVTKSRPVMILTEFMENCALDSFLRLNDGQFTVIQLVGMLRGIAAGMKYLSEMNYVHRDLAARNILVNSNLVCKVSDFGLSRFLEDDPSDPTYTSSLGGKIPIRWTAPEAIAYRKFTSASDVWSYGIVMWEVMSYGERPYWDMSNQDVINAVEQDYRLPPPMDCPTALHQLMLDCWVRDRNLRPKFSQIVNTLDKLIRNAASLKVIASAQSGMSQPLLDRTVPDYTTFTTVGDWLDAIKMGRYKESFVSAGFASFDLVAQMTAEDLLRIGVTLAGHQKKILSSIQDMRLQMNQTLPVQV

Sequence of MRCKb/CDC42BPB (Q9Y5S2 whole entry): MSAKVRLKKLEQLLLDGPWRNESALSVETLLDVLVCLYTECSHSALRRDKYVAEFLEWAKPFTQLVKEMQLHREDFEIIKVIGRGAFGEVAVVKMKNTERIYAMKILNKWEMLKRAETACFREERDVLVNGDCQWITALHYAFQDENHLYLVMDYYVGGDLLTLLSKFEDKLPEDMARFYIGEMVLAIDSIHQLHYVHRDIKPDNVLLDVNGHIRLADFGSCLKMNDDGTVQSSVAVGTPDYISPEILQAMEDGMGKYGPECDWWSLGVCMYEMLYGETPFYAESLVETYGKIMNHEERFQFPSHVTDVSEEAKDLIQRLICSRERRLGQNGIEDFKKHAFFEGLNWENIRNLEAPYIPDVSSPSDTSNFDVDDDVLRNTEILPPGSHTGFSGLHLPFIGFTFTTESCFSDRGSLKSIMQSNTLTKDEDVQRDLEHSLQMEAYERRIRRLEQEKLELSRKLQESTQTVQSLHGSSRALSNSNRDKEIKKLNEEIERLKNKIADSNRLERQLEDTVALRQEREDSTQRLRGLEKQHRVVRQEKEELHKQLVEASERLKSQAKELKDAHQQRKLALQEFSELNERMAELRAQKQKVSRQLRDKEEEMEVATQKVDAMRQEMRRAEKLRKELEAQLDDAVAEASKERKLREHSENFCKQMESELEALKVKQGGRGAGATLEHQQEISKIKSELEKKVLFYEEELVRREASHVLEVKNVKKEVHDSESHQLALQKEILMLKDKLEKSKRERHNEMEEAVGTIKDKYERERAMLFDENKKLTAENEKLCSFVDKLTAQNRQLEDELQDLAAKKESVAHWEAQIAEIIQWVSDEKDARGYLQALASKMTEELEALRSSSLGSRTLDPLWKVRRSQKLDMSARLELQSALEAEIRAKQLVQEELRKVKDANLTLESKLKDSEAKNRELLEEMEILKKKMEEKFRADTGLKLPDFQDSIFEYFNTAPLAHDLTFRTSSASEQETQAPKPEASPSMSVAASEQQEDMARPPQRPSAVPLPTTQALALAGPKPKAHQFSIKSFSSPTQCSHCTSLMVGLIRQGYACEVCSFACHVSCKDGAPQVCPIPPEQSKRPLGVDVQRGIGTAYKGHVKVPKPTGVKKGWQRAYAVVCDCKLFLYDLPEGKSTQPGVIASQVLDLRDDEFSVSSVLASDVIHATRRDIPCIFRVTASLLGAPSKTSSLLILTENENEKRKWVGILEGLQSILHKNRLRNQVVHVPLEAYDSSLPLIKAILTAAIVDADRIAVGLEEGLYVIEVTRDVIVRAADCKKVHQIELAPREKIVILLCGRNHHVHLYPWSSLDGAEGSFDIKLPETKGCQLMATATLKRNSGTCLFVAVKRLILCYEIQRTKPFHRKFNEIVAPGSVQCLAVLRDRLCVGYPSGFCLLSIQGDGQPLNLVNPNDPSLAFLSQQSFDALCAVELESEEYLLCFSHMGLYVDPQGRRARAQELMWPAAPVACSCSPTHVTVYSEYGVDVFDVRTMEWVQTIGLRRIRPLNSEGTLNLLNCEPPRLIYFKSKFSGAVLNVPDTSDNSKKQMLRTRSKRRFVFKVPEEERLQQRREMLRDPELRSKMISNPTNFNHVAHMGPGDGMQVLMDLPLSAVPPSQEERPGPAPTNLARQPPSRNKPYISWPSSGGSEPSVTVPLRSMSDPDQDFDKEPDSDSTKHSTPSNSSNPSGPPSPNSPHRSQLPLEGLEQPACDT
Sequence of ROCK2 (O75116 whole entry): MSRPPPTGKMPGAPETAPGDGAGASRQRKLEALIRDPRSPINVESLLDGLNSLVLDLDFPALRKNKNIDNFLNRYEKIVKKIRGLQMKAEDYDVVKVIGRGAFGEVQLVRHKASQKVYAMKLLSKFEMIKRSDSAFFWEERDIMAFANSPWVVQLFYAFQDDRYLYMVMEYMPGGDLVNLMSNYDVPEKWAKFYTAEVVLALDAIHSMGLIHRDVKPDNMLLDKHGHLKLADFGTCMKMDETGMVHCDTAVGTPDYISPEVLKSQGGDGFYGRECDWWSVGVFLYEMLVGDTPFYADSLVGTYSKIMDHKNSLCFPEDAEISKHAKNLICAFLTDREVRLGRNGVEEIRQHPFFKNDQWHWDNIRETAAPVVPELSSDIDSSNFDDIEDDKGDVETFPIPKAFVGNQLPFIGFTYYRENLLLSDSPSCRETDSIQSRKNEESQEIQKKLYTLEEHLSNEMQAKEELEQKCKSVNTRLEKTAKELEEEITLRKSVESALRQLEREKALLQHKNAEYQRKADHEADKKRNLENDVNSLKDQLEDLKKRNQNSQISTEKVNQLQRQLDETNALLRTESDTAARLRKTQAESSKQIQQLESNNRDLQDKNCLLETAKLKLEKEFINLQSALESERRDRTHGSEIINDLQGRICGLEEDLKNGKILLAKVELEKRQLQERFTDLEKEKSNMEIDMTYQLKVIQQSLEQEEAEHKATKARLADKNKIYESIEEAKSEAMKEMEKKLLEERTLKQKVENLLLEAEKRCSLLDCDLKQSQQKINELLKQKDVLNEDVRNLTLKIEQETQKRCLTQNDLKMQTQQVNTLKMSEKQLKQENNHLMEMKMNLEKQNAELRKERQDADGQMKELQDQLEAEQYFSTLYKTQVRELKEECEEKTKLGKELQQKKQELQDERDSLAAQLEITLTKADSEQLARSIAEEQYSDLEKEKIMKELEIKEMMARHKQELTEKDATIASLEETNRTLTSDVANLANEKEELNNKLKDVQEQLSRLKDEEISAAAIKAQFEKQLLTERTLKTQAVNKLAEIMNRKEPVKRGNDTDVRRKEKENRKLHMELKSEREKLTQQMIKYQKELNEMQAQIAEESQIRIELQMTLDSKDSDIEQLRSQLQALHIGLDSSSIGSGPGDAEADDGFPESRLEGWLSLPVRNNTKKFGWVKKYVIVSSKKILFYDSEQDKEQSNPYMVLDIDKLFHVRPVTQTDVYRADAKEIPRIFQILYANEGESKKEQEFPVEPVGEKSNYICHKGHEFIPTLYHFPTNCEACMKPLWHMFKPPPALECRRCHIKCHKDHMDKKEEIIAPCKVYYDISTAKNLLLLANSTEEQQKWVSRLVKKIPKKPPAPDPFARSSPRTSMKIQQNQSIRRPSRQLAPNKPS

SMILES: COc1cc(-c2cncc(-c3ccc(N4CCN(C)CC4)cc3)c2C)cc(F)c1C(N)=O [Compound 26a, 2-Fluoro-6-methoxy-4-(4-methyl-5-(4-(4-methylpiperazin-1-yl)phenyl)pyridin-3-yl)benzamide]
- remaining activity at 1 µM (MEKK2): 95%
- remaining activity at 1 µM (MRCKb/CDC42BPB): 94.6%
- % enzyme activity (ROCK2): 115.13%
- remaining activity at 1 µM (MYO3b): 81.6%
- remaining activity at 1 µM (EPHB3): 95.5%

SMILES: COc1cc(-c2cncc(-c3ccc(N4C[C@@H](C)N(C)[C@@H](C)C4)cc3)c2C)cc(F)c1C(N)=O [Compound 26c, 2-Fluoro-6-methoxy-4-(4-methyl-5-(4-((3R,5S)-3,4,5-trimethylpiperazin-1-yl)phenyl)pyridin-3-yl)benzamide]
- remaining activity at 1 µM (MEKK2): 98.8%
- remaining activity at 1 µM (MRCKb/CDC42BPB): 99.7%
- % enzyme activity (ROCK2): 93.98%
- remaining activity at 1 µM (MYO3b): 86.5%
- remaining activity at 1 µM (EPHB3): 98.9%
